In patent publication US6207397A, “In vitro fluorescence polarization assay” (ARIAD Pharmaceuticals, Inc., priority 1997, dated 2001):
Where two headings read alike, the source gives them in different places. Square brackets hold non-standard residues; d marks the D form. Peptide text beside a SMILES is read from it. * marks the point of attachment. 5FAM = O=C1OC2(c3ccc(O)cc3Oc3cc(O)ccc32)c2ccc(C(=O)*)cc21; pY = N[C@@H](Cc1ccc(OP(=O)(O)O)cc1)C(=O)O

Assays:
[1] = biological target: T1, Src-SH2 (Homo sapiens, UniProt P12931); assay: Fluorescence polarization saturation experiment with Src-SH2 using an alternate (BODIPY-TRX) probe; format: binding; conditions: filters 591/635
T1 construct: Human Src encoding residues 145-251; made in house; host or cells: E. coli BL21 (DE3), pT7 expression vector
Text: A competition assay was developed for Src-SH2 (applicable to any fragment of Src containing the SH2 domain) with a non-fluorescein fluorophore. The fluorophore is one of a family of fluorescent molecules containing the core fluorophore, 4,4-difluoro-4 bora-3a,4a-diaza-s-indacene (commerciallyavailable from Molecular Probes Inc.). The structure of the fluorophore-peptide probe is: [drawing 2]
Specifically, the excitation/emission filters used with the above are 591/635, compared to 485/530 for fluorescein.
(§1) Synthesis of the peptide portion of the probe was as described in Example 1, with production of the peptide NH2-pYEEI. The probe was further synthesized by coupling the free amine peptide, NH2-pYEEI, with the succinimidyl ester of the BODIPY-TRX probe in a 66% DMSO buffer (34% 0.1 MNaBicarbonate). Completion of reaction was monitored by silica gel TLC (4:1:1, butanol, H2O , Acetic Acid solvent system), and was done by 24 hrs.
The only difference was the use of an alternate set of filters for the red probe, as described in A above.

[2] = Hydrophobicity of the BODIPY-TRX peptide probe; format: physicochemical; conditions: resultant peptide
Text: as §1

[3] = biological target: T2, Src-SH2 domain (Homo sapiens, UniProt P12931); assay: Fluorescence polarization saturation experiment of probe FMT1 with Src-SH2; format: binding
T2 construct: Human Src encoding residues 145-251; made in house; host or cells: E. coli BL21 (DE3), pT7 expression vector
Procedure: Human Src encoding residues 145-251 [Tanaka, A. and Fujita, D. J., Mol. Cell. Biol. 6:3900-3909 (1986)] was cloned into the pT7 expression vector and transformed into E. coli BL21 (DE3). Protein was produced from the growth and induction of 27 liters of culture in minimal medium. In a typical preparation, the culture was grown at 37° C. to an optical density (OD) of 1.0 at 595 nm. The culture was induced with 1 mM isopropyl--D-thiogalactopyranoside (IPTG) and the temperature was dropped to 25° C. The culture was harvested 21 hours later.
(§2) All polarization methods were performed on an FPM2 96-well plate reader (Jolley), with standard cutoff filters (excitation=485 nm; emission=530 nm). Saturation experiments were used to explore various conditions for the assay, with the aim of maximizing the protein and assay stability, and of determining Kd s of the protein/probe interaction.
For saturation experiments, fixed concentrations of probe were used, and increasing concentrations of Src-SH2 were added. This is the reverse of the way such assays are commonly done with radioactive ligands.
A saturation experiment was conducted in which the Src-SH2 domain is varied in concentration from a high of 40 uM to a low of 39 nM. The fluorescent probe FMT1 (FIG. 1) was kept at a fixed concentration of 20 nM. Amino acid analysis was used to quantitate both the protein and probe concentrations. The results are illustrated in the saturation curve and Scatchard analysis of FIGS. 2A and 2B, respectively from this experiment.

[4] = biological target: T3, Src SH3 (Homo sapiens, UniProt P12931); assay: Fluorescence polarization saturation experiment, Src SH3 binding assay with Src-SH2-SH3 protein; conditions: SH3 probe
T3 construct: SH3-specific probe
Text: Biol. 7(5): 1978-1983 (1987)], and a probe specific for the Src SH3 domain (in place of the Src-specific SH2 probe). Note that larger or smaller Src proteins may be used, so long as they include the Src SH3 domain (with or without the Src SH2 domain). Production and purification of the protein were essentially as described above, e.g., see Example 3. The following details are provided:
The following Src SH3 specific probe ("FPSH3") was synthesized using the techniques described in Example 1: […]

[5] = biological target: GRB2 SH2 (Homo sapiens, UniProt P62993); conditions: saturation with GRB2 SH2 protein
GRB2 SH2, sequence (P62993 55-152): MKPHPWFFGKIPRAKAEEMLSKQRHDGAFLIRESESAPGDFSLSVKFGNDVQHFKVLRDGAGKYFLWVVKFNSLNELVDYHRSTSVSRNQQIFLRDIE
Procedure: The human GRB2 protein tested in the assay comprised amino acid residues 55-152 of huGRB2 [see Cell 70: 431-442 (1992)], although longer sequences encompassing the SH2 domain may also be used. Production and purification of the protein domain was similar to methods described above, especially the use of a phosphotyrosine column to purify the GRB2 SH2domain.
As in previous examples, saturation experiments were performed with fixed concentrations of probe and increasing concentrations of Grb-2-SH2.
The following Grb-2-specific SH2 probe ("FPgb2") was synthesized using the techniques described in Example 1 [drawing 1] 2, Fluor-GpYVNV-NH2

[6] = biological target: T1, Src-SH2; assay: Fluorescence polarization Src-SH2 competition assay with peptides; format: binding; conditions: for IC50: TABLE 1, fixed probe and Src-SH2, increasing peptide, read-out: Peptide competitive IC50
Procedure: as §2
For competition experiments, fixed concentrations of probe and protein were used, and increasing concentrations of peptides were added.
All buffer components were low-fluorescence grade (Panvera Corporation). Standard (STD) buffer contains 20 mM phosphate (pH 7.4), 100 mM NaCl, 2 mM DTT, 1 mM EDTA, and 100 ug/ml BGG. Standard buffer is prepared by preparing NaCl, EDTA and phosphate stocks in Millipore water or the cleanest available water supply. The buffer is brought to volume in the same clean water.
The SRC protein is used at a concentration of 0.75 uM final. An example of SRC stock solution is 416.6 uM in STD buffer. […] It is desirable to make a 2× stock of this. For assays where the tighter-binding pYpYpYIE probe is used, the Src protein concentration can be reduced to 150 nM. In general, the concentration of the protein can be adjusted to match the affinity of the probe.
Fluor-GpYEEI is used as the probe at a concentration of 20 nM final. The probe stock sent is 10 uM in STD buffer.

[7] = biological target: Src SH2-SH3 (Homo sapiens, UniProt P12931); assay: Fluorescence polarization saturation experiment, Src SH2-SH3 double binding assay; conditions: saturation with Src-SH2-SH3; SH2-SH3 probe
Text: Proteins such as Src contain both an SH2 and an SH3 domain. Certain proteins can bind to such SH2- SH3 proteins not through SH2 or SH3 domains alone, but through both domains at once. One example is the protein, p130CAS, which is thought to bind Src via both SH2 and SH3 domains. The SH3 and SH2 binding sequences of p130CAS have been identified by deletional and site-specific mutagenesis (Nakamoto et. al., JBC 271, 8959-8965, 1996). […] Fluorescent probes for FP assays were designed based on these sequences. Such probes can be used in assays that allow simultaneous screening for both SH2-specific and SH3-specific inhibitors. One such probe ("FPC130") is the following:
This is the native sequence from p130CAS (733-767). Derivative probes based on the foregoing but using different component SH2 and/or SH3 sequences may be used to vary the affinity or protein specificity, and especially to increase the overall affinity of probe for the desired target protein.

CC[C@H](C)[C@H](NC(=O)[C@H](CCC(=O)O)NC(=O)[C@H](CCC(=O)O)NC(=O)[C@H](Cc1ccc(OP(=O)(O)O)cc1)NC(=O)CCCCCNC(=O)CC1=C(C)C2=Cc3ccc(-c4ccc(OC)cc4)n3[B-](F)(F)[N+]2=C1C)C(N)=O [BODIPY-TRX probe]
Kd and total mP difference on protein binding [1]: adequate Kd and total mP difference on protein binding
Hydrophobicity [2]: quite hydrophobic

CC[C@H](C)[C@H](NC(=O)[C@H](CCC(=O)O)NC(=O)[C@H](CCC(=O)O)NC(=O)[C@H](Cc1ccc(OP(=O)(O)O)cc1)NC(=O)CNC(=O)c1ccc2c(c1)C(=O)OC21c2ccc(O)cc2Oc2cc(O)ccc21)C(N)=O [FMT1, fluorescein-G-pYEEI-NH2] (5FAM-G[pY]EEI-NH2)
Kd ([3]; FIG. 2A, error of 0.008, FMT1 fixed at 20 nM, Src-SH2 39 nM to 40 uM, read-out: Calculated Kd (non-linear least squares fit of saturation experiment)): 240 nM
Kd ([3]; FIG. 2B, R value 0.992 for the linear fit, read-out: Calculated Kd (Scatchard analysis)): 260 nM
Binding mode in saturation experiment ([3]; FIGS. 2A and 2B): saturable binding to a single site is observed
Kd ([3]; standard buffer conditions, read-out: Kd towards Src-SH2): ~300 nM

CC(C)C[C@H](NC(=O)[C@@H]1CCCN1C(=O)c1ccc2c(c1)C(=O)OC21c2ccc(O)cc2Oc2cc(O)ccc21)C(=O)N[C@@H](C)C(=O)N[C@@H](CCCNC(=N)N)C(=O)N[C@@H](CCCNC(=N)N)C(=O)N1CCC[C@H]1C(=O)N[C@@H](CC(C)C)C(=O)N1CCC[C@H]1C(=O)N1CCC[C@H]1C(=O)N[C@@H](CC(C)C)C(=O)N1CCC[C@H]1C(N)=O [FPSH3] (5FAM-PLARRPLPPLP-NH2)
Kd and total mP difference on protein binding [4]: appropriate Kd and total mP difference on protein binding

CC(C)[C@H](NC(=O)[C@H](CC(N)=O)NC(=O)[C@@H](NC(=O)[C@H](Cc1ccc(OP(=O)(O)O)cc1)NC(=O)CNC(=O)c1ccc2c(c1)C(=O)OC21c2ccc(O)cc2Oc2cc(O)ccc21)C(C)C)C(N)=O [FPgb2, Fluor-GpYVNV-NH2] (5FAM-G[pY]VNV-NH2)
Kd and total mP difference on protein binding [5]: appropriate Kd and total mP difference on protein binding

CC[C@H](C)[C@H](NC(=O)[C@H](Cc1ccc(OP(=O)(O)O)cc1)NC(=O)[C@H](Cc1ccc(OP(=O)(O)O)cc1)NC(=O)[C@H](Cc1ccc(OP(=O)(O)O)cc1)NC(=O)c1ccc2c(c1)C(=O)OC21c2ccc(O)cc2Oc2cc(O)ccc21)C(=O)N[C@@H](CCC(=O)O)C(N)=O [pYpYpYIE probe, fluorescein-pYpYpYIE-NH2] (5FAM-[pY][pY][pY]IE-NH2)
Relative binding of probe to Src ([6]; probe allowing Src protein reduced to 150 nM): tighter-binding

Ac-pYGGL
IC50 [6]: 700000 nM

Ac-pYTGL
IC50 [6]: 100000 nM

Ac-pYpYEEI
IC50 [6]: 1500 nM

Ac-pYpYpYIE
IC50 [6]: 500 nM

Fluor-RPLPSPPKFTSQDSPDGQYENSEGGWMEDpYDYVHL [FPC130]
Kd and total mP difference on protein binding [7]: appropriate Kd and total mP difference on protein binding
